The values that follow come from ChEMBL document CHEMBL5236553, “Advances in the development of HIV integrase strand transfer inhibitors” (Eur J Med Chem, 2021).

Data set [1] concerns the target Human immunodeficiency virus type 1 integrase (Human immunodeficiency virus 1, UniProt Q7ZJM1, R263K). Kind of data set: Inhibition of HIV-1 integrase DTG-resistant R263K mutant.
For data set [2], the target named is Human immunodeficiency virus type 1 integrase (Human immunodeficiency virus 1, UniProt Q7ZJM1, H51Y/R263K). Briefly: Inhibition of HIV-1 integrase DTG-resistant H51Y/R263K double mutant.
The target of data set [3] is T1, Integrase (Human immunodeficiency virus 1, UniProt T1QYY3, G140S/Q148H). Briefly: Inhibition of HIV-1 integrase RAL-resistant G140S/Q148H double mutant.
The target in data set [4] is T1, Integrase. Briefly: Inhibition of HIV-1 integrase G140S/Q148H double mutant.
Data set [5] deals with Human immunodeficiency virus type 1 integrase (Human immunodeficiency virus 1, UniProt Q7ZJM1, G118R). Kind of data set: Inhibition of HIV-1 integrase DTG-resistant G118R mutant.
The test system of data set [6] is Human immunodeficiency virus. Briefly: Antiviral activity against HIV-1 harboring integrase […]/N155H mutant. The format is functional, organism-based. To be noted: Human immunodeficiency virus 1.
For data set [7], the system named is Human immunodeficiency virus. Kind of data set: Antiviral activity against HIV-1 harboring integrase M50I mutant. The format is functional, organism-based. To be noted: Human immunodeficiency virus 1.
The test system of data set [8] is Human immunodeficiency virus. Briefly: Antiviral activity against HIV-1 harboring integrase L74M mutant. The format is functional, organism-based. To be noted: Human immunodeficiency virus 1.
Data set [9] relates to Human immunodeficiency virus. Briefly: Binding affinity to HIV-1 wildtype integrase DNA complex assessed as dissociative half life.
Data set [10] deals with Human immunodeficiency virus. Kind of data set: Antiviral activity against HIV-1 harboring integrase E138K/Q148K mutant. The format is functional, organism-based. To be noted: Human immunodeficiency virus 1.
Data set [11] deals with Human immunodeficiency virus. Kind of data set: Antiviral activity against HIV-1 harboring integrase G140S/Q148H mutant. Type of data set: functional, organism-based. To be noted: Human immunodeficiency virus 1.
The subject of data set [12] is Human immunodeficiency virus. Kind of data set: Antiviral activity against HIV-1 harboring integrase E92Q mutant. Type of data set: functional.
For data set [13], the system named is Integrase (Human immunodeficiency virus 1). Briefly: Inhibition of HIV-1 integrase-catalyzed strand transfer.
The target of data set [14] is Human immunodeficiency virus type 1 integrase (Human immunodeficiency virus 1, UniProt Q7ZJM1). Briefly: Inhibition of HIV-1 integrase strand transfer activity.
Data set [15] relates to Human immunodeficiency virus. Kind of data set: Fold change in antiviral EC50 against HIV-1 harboring integrase Y143R mutant. To be noted: Human immunodeficiency virus 1.
Data set [16] relates to Human immunodeficiency virus. Kind of data set: Fold change in antiviral EC50 against HIV-1 harboring integrase Q148K mutant. To be noted: Human immunodeficiency virus 1.
Data set [17] can be described thus: Clearance in dog plasma. Type of data set: ADME, cell-free, Canis lupus familiaris.
Data set [18] in a line: Clearance in rat plasma. Type of data set: ADME, cell-free.
Data set [19] has as its system Human immunodeficiency virus. Kind of data set: Antiviral activity against HIV-1 harboring integrase Q148R mutant. To be noted: Human immunodeficiency virus 1. The format is functional, organism-based.
Data set [20] concerns Human immunodeficiency virus. Kind of data set: Antiviral activity against HIV-1 harboring integrase G140S/Q148H double mutant. Type of data set: functional, organism-based. To be noted: Human immunodeficiency virus 1.
For data set [21], the system named is Human immunodeficiency virus. Briefly: Antiviral activity against HIV-1 harboring integrase N155H mutant. The format is functional, organism-based. To be noted: Human immunodeficiency virus 1.
For data set [22], the system named is Human immunodeficiency virus. Briefly: Antiviral activity against wild type HIV-1 integrase. Type of data set: functional, organism-based. To be noted: Human immunodeficiency virus 1.
Data set [23] relates to Human immunodeficiency virus. Kind of data set: Antiviral activity against HIV-1 assessed as inhibition of HIV infection in human T cells by cell based assay. Type of data set: functional, organism-based. To be noted: Human immunodeficiency virus 1, T-cell.

Consider `O=C(NCc1c(F)cc(F)cc1F)c1cn2c(c(O)c1=O)C(=O)N1[C@H]3CC[C@H](C3)O[C@@H]1C2` [BICTEGRAVIR], for which the EC50 – broadly, the concentration needed to bring the measured effect to its halfway point – in data set [1] is no more than 5 nM; in data set [2], no more than 5 nM; on Integrase [3], no more than 5 nM; at Integrase [4] it was 3.1 nM; in [5] it was no more than 5 nM.

Take `C[C@@H]1CCO[C@H]2Cn3cc(C(=O)NCc4ccc(F)cc4F)c(=O)c(O)c3C(=O)N12` [DOLUTEGRAVIR]: the EC50 in [6] came out at 4 nM; in data set [7], 2.1 nM; in [8], 2.2 nM; in data set [10], 25 nM; in data set [11], 3.9 nM. For the same compound, the T1/2 in [9] is 71 h.

`Cc1nnc(C(=O)NC(C)(C)c2nc(C(=O)NCc3ccc(F)cc3)c(O)c(=O)n2C)o1`: the “fold change (FC)” value in data set [12] is reported as 3. Further, in [13], the half-inhibitory concentration (IC50) (commonly the concentration at which inhibition is half-maximal) came to 10 nM.

For `O=C(NCc1ccc(F)cc1F)c1c(O)c2cccnc2n(O)c1=O`, the concentration for half-maximal inhibition (IC50) in [14] turned out to be 550 nM.

In turn, `O=C(NCc1ccc(F)c(F)c1)c1cc2cccnc2n(O)c1=O` returned an IC50 in data set [14] of 170 nM.

With `O=C(NCc1ccc(F)cc1F)c1cc2cccc(O)c2n(O)c1=O`, the half-maximal inhibitory concentration (IC50) in [14] stood at 1800 nM.

With `O=C(NCc1ccc(F)c(Cl)c1)c1cc2cccnc2n(O)c1=O`, the half-inhibitory concentration (IC50) in data set [14] was 140 nM.

As to `CC(C)n1c(C(=O)N(C)C)c2c(c(O)c1=O)C(=O)N(Cc1ccc(F)c(Cl)c1)CC2`, the fold change in [15] was 2; in [16], 1. Also, the clearance (as a rule, the rate of elimination divided by the concentration) in data set [17] worked out at 2.2 mL/min/kg; in data set [18], 2.3 mL/min/kg. Further, in data set [12], the “fold change (FC)” value worked out at 1.

`CN1C(=O)c2c3c(c(O)c(=O)n2[C@]12CC[C@H]1C[C@@]12CO)C(=O)N(Cc1ccc(F)c(Cl)c1)CC3`: the fold change in data set [15] and in [16] was 1 in each case. In addition, the “fold change (FC)” value in [12] worked out at 1.

Take `CC1(C)OCCn2c1nc(-c1ncc(Cc3ccc(F)cc3)[nH]1)c(O)c2=O`: the EC50 in data set [19] was determined as 33 nM; in data set [20], 320 nM; in data set [21], 2 nM; in [22], 6 nM.

On to `O=C(NCc1ccc(F)cc1F)c1cc2cccnc2n(O)c1=O`, for which 410 nM corresponded to half-maximal inhibition in [14] (IC50).

Take `O=C(NCc1ccc(F)c(F)c1)c1c(O)c2cccnc2n(O)c1=O`: inhibition in data set [14] was half-maximal at 400 nM (IC50).

Consider `C[C@H](O)N1C(=O)c2c3c(c(O)c(=O)n2[C@]12CC[C@H]1C[C@H]12)C(=O)N(Cc1ccc(F)c(Cl)c1)CC3`, for which the fold change in data set [15] and in data set [16] was 1 in each case. Moreover, the EC50 in data set [19] and in data set [21] was 1.5 nM throughout. For the same compound, the “fold change (FC)” value in [12] came to 1.5.

Take `CC1(C)OCCn2c1nc(C(=O)NCc1ccc(F)cc1)c(O)c2=O`: the EC50 in data set [19] is 300 nM; in data set [20], greater than 8000 nM; in data set [21] it was 140 nM; in [22] it was 3 nM.

Regarding `O=C(NCc1ccc(F)c(Cl)c1)c1c(O)c2cccnc2n(O)c1=O`, in data set [14], the IC50 is 270 nM.

Turning to `COc1cc2c(cc1Cc1cccc(Cl)c1F)c(=O)c(C(=O)O)cn2[C@H](CO)C(C)C`, in [23], the EC50 turned out to be 0.9 nM.

`Nc1c(C(=O)NCc2ccc(F)cc2F)c(=O)n(O)c2ncc(CCCCCCO)cc12`: the EC50 in [6] is 1.1 nM; in data set [7], 1.3 nM; in data set [8] it was 1.6 nM; in data set [10] it was 16 nM; in data set [11], 0.9 nM.
